In PMC3961306, “Comparison of the Cancer Gene Targeting and Biochemical Selectivities of All Targeted Kinase Inhibitors Approved for Clinical Use” (PLoS ONE, 2014):

Assays:
Assay in all cases: Kinase profiling in a biochemical assay panel (mobility shift assays and ELISA), %-inhibition at 1 μM; selectivity entropy
[1] = target: panel of more than 300 wild-type and mutant kinases (313 kinase panel) (Homo sapiens, UniProt Q8IY84)
[2] = target: T1, panel of more than 300 wild-type and mutant kinases (313 kinase panel) (Homo sapiens, UniProt Q9UF33)
T1 sequence (Q9UF33 23-1036): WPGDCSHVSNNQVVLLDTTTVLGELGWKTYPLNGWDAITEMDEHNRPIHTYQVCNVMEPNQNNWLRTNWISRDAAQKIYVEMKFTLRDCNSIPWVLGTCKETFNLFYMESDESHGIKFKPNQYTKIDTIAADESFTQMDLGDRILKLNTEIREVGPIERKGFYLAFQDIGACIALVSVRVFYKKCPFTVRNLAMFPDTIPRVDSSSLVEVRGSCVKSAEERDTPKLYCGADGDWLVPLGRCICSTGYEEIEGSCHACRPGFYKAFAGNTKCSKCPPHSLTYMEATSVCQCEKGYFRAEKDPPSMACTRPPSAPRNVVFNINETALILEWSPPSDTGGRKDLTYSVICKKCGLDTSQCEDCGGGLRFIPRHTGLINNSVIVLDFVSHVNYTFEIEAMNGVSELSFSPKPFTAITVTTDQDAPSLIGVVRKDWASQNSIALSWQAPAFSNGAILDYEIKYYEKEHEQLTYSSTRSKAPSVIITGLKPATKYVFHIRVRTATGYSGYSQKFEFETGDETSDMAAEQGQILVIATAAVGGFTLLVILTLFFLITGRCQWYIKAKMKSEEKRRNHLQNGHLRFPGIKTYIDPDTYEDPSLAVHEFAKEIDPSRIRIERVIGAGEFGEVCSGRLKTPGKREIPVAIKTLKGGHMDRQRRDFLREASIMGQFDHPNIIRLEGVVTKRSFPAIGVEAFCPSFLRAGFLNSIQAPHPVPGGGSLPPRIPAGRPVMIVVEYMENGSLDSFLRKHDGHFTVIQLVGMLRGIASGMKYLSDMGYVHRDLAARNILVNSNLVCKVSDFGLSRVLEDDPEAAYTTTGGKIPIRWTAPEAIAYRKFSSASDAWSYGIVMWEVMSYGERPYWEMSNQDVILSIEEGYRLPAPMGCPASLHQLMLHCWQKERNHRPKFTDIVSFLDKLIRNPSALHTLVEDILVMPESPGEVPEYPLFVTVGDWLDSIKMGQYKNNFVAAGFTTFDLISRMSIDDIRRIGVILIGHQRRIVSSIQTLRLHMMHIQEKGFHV

[3] = target: panel of more than 300 wild-type and mutant kinases (313 kinase panel) (Homo sapiens, UniProt Q13233)
[4] = target: panel of more than 300 wild-type and mutant kinases (313 kinase panel) (Homo sapiens, UniProt P07948)
[5] = target: panel of more than 300 wild-type and mutant kinases (313 kinase panel) (Homo sapiens, UniProt P10721, V654A)
[6] = target: T2, panel of more than 300 wild-type and mutant kinases (313 kinase panel) (Homo sapiens, UniProt Q13470)
T2 sequence (Q13470 1-666): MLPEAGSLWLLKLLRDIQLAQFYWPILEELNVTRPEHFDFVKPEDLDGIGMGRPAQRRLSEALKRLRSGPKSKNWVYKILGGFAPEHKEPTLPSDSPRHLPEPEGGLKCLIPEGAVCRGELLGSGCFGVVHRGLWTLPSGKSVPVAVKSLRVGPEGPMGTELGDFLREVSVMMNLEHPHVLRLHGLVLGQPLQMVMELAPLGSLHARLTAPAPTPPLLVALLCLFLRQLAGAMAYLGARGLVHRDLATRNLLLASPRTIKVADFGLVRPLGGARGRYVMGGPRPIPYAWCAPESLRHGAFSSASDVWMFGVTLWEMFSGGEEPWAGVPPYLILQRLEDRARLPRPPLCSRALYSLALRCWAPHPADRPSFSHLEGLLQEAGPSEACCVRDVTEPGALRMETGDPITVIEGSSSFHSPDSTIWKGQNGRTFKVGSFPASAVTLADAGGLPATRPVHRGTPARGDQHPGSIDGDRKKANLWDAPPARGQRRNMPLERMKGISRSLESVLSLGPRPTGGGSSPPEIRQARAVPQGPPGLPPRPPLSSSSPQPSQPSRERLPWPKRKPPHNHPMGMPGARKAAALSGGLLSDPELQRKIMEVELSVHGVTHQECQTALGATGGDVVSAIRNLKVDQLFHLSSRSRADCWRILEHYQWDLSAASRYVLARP

[7] = target: panel of more than 300 wild-type and mutant kinases (313 kinase panel) (Homo sapiens, UniProt Q9H2G2)
[8] = target: panel of more than 300 wild-type and mutant kinases (313 kinase panel) (Homo sapiens, UniProt P22455, V550L); settings: kinase FGFR4(V550L); compound at 1 μM
[9] = kinase MAP3K1, compound at 1 μM
[10] = kinase KIT(V654A), compound at 1 μM

Chain of panel of more than 300 wild-type and mutant kinases (313 kinase panel) (Homo sapiens, UniProt P10721, V654A) (P10721 26-976 V654A): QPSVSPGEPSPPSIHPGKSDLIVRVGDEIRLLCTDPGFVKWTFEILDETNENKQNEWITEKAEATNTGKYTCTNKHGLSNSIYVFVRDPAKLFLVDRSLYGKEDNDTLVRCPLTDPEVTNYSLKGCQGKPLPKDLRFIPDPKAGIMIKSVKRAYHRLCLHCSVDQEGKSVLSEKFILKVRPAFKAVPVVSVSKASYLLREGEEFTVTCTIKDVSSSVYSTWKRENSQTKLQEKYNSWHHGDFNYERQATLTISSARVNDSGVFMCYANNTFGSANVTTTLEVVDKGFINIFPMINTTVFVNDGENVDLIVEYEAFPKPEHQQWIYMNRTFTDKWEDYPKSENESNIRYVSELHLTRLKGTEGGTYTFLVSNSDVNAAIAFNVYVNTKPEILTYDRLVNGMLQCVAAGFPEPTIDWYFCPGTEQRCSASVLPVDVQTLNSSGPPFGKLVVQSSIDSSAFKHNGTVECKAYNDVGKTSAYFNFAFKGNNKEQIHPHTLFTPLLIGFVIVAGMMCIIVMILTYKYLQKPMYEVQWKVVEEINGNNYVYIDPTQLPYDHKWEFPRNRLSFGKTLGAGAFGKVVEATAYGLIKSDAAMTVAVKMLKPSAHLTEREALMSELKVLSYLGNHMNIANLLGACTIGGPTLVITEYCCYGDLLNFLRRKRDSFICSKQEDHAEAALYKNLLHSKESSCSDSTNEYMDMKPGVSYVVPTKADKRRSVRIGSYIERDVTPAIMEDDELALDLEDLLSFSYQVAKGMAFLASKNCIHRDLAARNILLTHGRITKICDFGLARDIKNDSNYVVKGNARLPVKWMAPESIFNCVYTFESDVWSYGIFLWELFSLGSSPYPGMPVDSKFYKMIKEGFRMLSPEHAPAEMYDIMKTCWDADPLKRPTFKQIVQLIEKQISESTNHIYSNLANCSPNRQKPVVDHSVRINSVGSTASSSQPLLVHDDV
Chain of panel of more than 300 wild-type and mutant kinases (313 kinase panel) (Homo sapiens, UniProt P22455, V550L) (P22455 22-802 V550L): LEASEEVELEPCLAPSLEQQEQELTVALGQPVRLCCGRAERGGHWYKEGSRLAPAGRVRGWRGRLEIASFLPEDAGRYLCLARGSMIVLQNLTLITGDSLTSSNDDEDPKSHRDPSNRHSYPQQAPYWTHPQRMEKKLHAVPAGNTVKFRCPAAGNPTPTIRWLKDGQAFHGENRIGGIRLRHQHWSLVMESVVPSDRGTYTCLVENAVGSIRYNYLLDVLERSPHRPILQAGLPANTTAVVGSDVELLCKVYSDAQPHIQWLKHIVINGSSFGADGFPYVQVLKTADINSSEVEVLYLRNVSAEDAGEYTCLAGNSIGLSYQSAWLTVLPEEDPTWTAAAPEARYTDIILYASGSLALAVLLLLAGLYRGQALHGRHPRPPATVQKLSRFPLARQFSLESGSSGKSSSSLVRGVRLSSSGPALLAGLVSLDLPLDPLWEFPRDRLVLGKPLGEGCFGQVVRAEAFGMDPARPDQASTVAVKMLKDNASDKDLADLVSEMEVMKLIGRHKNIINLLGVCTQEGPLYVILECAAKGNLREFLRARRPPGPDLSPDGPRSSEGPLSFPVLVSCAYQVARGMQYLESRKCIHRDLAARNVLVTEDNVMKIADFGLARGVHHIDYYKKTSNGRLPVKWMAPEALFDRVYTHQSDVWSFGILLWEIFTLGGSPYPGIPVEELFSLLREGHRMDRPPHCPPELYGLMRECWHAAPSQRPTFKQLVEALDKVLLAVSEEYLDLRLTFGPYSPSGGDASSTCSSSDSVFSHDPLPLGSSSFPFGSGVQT
Chain of panel of more than 300 wild-type and mutant kinases (313 kinase panel) (Homo sapiens, UniProt Q13233) (Q13233 whole entry, change not shown): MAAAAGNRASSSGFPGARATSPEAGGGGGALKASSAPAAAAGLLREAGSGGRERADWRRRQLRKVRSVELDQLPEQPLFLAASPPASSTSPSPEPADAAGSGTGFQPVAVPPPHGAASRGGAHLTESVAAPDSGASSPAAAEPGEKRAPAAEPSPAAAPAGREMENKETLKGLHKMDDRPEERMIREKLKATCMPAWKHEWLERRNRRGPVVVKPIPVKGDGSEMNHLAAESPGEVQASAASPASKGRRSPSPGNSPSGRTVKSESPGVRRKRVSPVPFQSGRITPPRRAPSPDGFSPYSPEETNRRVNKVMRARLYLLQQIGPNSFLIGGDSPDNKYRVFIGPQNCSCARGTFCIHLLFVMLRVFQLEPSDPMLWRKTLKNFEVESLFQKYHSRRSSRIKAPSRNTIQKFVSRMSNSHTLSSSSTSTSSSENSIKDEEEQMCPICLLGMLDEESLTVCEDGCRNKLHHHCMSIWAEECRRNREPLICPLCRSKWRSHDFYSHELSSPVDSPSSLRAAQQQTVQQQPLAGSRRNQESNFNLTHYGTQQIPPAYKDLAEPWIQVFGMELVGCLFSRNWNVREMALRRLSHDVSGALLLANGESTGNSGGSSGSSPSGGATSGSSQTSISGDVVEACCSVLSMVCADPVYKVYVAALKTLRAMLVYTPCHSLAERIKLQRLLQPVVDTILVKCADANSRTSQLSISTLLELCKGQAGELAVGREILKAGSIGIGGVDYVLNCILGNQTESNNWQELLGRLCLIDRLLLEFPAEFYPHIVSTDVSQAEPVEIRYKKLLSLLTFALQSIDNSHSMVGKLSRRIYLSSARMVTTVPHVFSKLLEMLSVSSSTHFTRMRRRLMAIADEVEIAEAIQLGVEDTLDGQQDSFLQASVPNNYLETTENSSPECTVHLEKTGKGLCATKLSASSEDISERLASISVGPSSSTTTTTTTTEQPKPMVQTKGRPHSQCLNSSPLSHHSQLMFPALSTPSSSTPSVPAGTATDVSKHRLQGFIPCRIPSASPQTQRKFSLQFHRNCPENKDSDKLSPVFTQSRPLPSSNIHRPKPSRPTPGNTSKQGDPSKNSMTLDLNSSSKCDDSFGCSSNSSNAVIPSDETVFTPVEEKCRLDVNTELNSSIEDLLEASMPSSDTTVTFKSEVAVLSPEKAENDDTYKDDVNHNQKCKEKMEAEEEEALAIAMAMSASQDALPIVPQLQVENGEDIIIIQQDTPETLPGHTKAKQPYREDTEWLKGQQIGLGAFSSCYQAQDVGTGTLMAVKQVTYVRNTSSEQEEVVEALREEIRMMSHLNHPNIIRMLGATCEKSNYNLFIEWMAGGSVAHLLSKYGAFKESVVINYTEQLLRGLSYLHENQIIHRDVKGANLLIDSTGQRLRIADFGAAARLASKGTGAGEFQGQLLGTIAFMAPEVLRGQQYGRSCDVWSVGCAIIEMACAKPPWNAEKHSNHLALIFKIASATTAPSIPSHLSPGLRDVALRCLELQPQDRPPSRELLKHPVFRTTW

SMILES	%-inhibition of MGC42105 ([1]; kinase MGC42105, 1 μM) [%]	%-inhibition of EPHA6 ([2]; kinase EPHA6, compound at 1 μM) [%]	%-inhibition of MAP3K1 [3, 9] [%]	%-inhibition of LYNa ([4]; kinase LYNa, compound at 1 μM) [%]	%-inhibition of KIT(V654A) [5, 10] [%]	%-inhibition of TNK1 ([6]; kinase TNK1, 1 μM) [%]	%-inhibition of SLK ([7]; kinase SLK, 1 μM) [%]	%-inhibition of FGFR4(V550L) [8] [%]	%-inhibition of EPHA6 ([2]; 1 µM) [%]	%-inhibition of TNK1 ([6]; 1 µM) [%]	%-inhibition of LYNa ([4]; 1 µM) [%]	%-inhibition of SLK ([7]; 1 µM) [%]	%-inhibition of MGC42105 ([1]; 1 µM) [%]	%-inhibition of KIT(V654A) ([5]; 1 µM) [%]	%-inhibition of MAP3K1 ([3]; 1 µM) [%]
Cc1ccc(Nc2nccc(N(C)c3ccc4c(C)n(C)nc4c3)n2)cc1S(N)(=O)=O [pazopanib]	0.318	24	37	84	87	42	28								
CNC(=O)c1cc(Oc2ccc(NC(=O)Nc3ccc(Cl)c(C(F)(F)F)c3)c(F)c2)ccn1 [regorafenib]	-22	103	4	89		47	29	3.37							
CC(=O)Nc1cccc(-n2c(=O)n(C3CC3)c(=O)c3c(Nc4ccc(I)cc4F)n(C)c(=O)c(C)c32)c1 [trametinib]	1.39		99	-1.74	-1.62		-2.6	-0.155	-2.51	-2.58					
CO[C@H]1C[C@@H]2CC[C@@H](C)[C@@](O)(O2)C(=O)C(=O)N2CCCC[C@H]2C(=O)O[C@H]([C@H](C)C[C@@H]2CC[C@@H](OC(=O)C(C)(CO)CO)[C@H](OC)C2)CC(=O)[C@H](C)/C=C(\C)[C@@H](O)[C@@H](OC)C(=O)[C@H](C)C[C@H](C)/C=C/C=C/C=C/1C [temsirolimus]	-11	0.437	6	-4.48	-4.65	-3	-4	-8.55							
CS(=O)(=O)CCNCc1ccc(-c2ccc3ncnc(Nc4ccc(OCc5cccc(F)c5)c(Cl)c4)c3c2)o1 [lapatinib]		20	1.76			-8.45					9	10			
COc1cc2c(Nc3ccc(Br)cc3F)ncnc2cc1OCC1CCN(C)CC1 [vandetanib]	-17		-7.43	93		23	90	-4.72							
Cc1cn(-c2cc(NC(=O)c3ccc(C)c(Nc4nccc(-c5cccnc5)n4)c3)cc(C(F)(F)F)c2)cn1 [nilotinib]		30	-18	85			-41			-4			-48	19	
C#Cc1cccc(Nc2ncnc3cc(OCCOC)c(OCCOC)cc23)c1 [erlotinib]									69	44	64	89	4	1.65	6
